Test results published in ChEMBL document CHEMBL3407489, “Bis-aryl urea derivatives as potent and selective LIM kinase (Limk) inhibitors” (J Med Chem, 2015).

Experiments:
[1] = Volume of distribution in Sprague-Dawley rat at 1 mg/kg, iv by LC-MS/MS and HPLC method; type: ADME, organism-based; parameters: dose 1 mg/kg, route intravenous; conditions: in vivo
[2] = Oral bioavailability in Sprague-Dawley rat at 2 mg/kg by LC-MS/MS and HPLC method; type: ADME, organism-based; conditions: in vivo
[3] = target: T1, LIM domain kinase 1 (Homo sapiens, UniProt P53667)
T1 sequence (P53667 whole entry, the tested form may be a part): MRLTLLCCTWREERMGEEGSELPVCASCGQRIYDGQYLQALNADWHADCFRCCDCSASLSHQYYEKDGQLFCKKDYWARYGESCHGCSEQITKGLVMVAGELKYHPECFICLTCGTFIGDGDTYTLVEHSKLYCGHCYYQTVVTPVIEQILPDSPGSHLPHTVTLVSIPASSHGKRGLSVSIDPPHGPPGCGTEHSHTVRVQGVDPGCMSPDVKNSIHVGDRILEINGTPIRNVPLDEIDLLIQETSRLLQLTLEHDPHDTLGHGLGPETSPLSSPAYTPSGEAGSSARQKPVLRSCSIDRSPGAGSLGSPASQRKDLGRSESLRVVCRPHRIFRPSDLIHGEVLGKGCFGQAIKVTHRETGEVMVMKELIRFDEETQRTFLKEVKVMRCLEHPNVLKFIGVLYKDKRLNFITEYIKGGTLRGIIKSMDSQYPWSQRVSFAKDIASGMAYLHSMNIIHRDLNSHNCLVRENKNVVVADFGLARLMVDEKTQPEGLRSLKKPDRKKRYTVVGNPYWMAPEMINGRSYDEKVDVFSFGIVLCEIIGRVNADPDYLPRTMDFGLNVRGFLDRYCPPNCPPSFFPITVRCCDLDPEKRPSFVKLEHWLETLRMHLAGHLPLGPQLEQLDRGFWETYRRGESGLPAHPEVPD

[4] = test system: Liver microsome; assay: Half life in human liver microsomes; type: ADME
[5] = test system: Liver microsome; assay: Half life in rat liver microsomes; type: ADME
[6] = target: LIM domain kinase 1 (Rattus norvegicus, UniProt P53669); assay: Inhibition of Limk1 in rat A7r5 cells assessed as reduction in cofilin phosphorylation by Western blot method; type: cell-based
Sequence of LIM domain kinase 1 (Rattus norvegicus, UniProt P53669) (P53669 whole entry, the tested form may be a part): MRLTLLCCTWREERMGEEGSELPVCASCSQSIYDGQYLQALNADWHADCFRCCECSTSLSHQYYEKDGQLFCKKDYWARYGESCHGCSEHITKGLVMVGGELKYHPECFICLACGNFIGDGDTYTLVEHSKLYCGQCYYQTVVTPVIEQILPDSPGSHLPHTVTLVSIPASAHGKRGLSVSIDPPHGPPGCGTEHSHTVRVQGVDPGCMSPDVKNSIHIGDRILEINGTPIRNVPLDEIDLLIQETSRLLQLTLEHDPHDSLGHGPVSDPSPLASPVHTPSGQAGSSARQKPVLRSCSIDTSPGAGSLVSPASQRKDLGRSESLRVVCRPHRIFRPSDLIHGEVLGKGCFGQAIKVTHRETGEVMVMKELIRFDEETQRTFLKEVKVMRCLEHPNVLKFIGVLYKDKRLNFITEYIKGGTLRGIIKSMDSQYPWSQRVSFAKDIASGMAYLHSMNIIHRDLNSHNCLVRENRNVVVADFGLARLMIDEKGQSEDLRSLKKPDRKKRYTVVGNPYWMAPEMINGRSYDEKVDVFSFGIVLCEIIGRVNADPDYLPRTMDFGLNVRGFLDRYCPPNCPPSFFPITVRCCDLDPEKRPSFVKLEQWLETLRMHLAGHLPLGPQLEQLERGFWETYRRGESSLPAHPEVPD

[7] = target: Rho-associated protein kinase 2 (Homo sapiens, UniProt O75116)
Sequence of Rho-associated protein kinase 2 (O75116 whole entry): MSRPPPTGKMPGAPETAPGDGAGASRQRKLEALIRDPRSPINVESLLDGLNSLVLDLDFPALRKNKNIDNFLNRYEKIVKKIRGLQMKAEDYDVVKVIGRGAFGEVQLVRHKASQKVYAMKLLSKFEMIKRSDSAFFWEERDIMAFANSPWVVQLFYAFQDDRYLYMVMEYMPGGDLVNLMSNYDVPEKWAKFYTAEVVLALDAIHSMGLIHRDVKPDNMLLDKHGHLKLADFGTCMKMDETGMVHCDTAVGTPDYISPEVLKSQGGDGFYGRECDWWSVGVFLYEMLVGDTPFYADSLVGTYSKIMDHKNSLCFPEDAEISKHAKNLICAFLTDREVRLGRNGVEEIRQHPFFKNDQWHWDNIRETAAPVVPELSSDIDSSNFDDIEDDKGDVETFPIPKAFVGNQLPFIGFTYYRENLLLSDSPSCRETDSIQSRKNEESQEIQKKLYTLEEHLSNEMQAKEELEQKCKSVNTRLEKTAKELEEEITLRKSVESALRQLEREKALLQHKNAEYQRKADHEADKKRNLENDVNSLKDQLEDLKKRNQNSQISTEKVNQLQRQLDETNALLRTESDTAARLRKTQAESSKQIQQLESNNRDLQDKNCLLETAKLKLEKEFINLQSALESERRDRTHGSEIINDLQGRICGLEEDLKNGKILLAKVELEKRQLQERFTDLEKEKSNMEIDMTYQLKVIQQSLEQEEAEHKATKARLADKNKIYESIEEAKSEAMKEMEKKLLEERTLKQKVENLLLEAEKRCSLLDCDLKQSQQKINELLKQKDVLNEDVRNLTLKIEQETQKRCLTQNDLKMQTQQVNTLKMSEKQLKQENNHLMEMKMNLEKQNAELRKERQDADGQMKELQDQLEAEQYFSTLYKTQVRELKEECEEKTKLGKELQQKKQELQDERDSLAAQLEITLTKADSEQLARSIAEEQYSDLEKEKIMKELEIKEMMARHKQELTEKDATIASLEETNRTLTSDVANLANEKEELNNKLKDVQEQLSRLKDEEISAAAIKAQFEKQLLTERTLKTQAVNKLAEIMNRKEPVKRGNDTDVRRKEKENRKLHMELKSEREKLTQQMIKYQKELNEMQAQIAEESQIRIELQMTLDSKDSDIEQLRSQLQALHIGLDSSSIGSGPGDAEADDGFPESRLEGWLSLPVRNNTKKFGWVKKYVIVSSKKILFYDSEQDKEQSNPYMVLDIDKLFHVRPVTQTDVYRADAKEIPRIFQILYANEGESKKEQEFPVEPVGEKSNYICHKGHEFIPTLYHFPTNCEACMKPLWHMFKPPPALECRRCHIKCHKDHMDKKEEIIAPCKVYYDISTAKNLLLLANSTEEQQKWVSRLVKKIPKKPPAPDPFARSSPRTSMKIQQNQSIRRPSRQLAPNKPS

[8] = test system: PC-3; assay: cells; conditions: Homo sapiens, PC-3, 24 h, read-out: INH
[9] = test system: PC-3; assay: cells; conditions: Homo sapiens, PC-3, 48 h, read-out: INH
[10] = target: CYP2D6 (Homo sapiens, UniProt P10635); assay: Inhibition of CYP2D6 (unknown origin) assessed as reduction in bufuralol hydroxylation to […] at 10 uM; type: ADME; conditions: probe bufuralol
Sequence of CYP2D6 (P10635 whole entry): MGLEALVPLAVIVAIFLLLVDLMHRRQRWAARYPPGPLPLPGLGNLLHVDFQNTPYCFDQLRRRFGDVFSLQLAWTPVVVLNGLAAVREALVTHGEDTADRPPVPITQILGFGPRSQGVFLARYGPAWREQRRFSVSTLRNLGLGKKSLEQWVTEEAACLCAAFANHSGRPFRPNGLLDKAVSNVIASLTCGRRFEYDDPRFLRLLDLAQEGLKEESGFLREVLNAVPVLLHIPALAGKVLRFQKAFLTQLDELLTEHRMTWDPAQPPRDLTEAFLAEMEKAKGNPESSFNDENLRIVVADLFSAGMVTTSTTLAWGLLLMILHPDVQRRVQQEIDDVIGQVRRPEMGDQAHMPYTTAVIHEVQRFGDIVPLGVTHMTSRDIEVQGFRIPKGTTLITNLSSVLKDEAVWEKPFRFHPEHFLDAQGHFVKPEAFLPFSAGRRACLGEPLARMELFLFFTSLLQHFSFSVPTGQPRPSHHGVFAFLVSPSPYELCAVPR

[11] = test system: PC-3; assay: cells; conditions: Homo sapiens, PC-3, 24 h, read-out: INH; remark: listed apart in the source
[12] = test system: PC-3; assay: cells; conditions: Homo sapiens, PC-3, 24 h, read-out: INH; remark: listed apart in the source
[13] = target: T2, CYP1A2 (Homo sapiens, UniProt P05177); assay: Inhibition of CYP1A2 (unknown origin) assessed as reduction in phenaceten demethylation to acetaminophen at 10 uM; type: ADME
T2 sequence (P05177 whole entry): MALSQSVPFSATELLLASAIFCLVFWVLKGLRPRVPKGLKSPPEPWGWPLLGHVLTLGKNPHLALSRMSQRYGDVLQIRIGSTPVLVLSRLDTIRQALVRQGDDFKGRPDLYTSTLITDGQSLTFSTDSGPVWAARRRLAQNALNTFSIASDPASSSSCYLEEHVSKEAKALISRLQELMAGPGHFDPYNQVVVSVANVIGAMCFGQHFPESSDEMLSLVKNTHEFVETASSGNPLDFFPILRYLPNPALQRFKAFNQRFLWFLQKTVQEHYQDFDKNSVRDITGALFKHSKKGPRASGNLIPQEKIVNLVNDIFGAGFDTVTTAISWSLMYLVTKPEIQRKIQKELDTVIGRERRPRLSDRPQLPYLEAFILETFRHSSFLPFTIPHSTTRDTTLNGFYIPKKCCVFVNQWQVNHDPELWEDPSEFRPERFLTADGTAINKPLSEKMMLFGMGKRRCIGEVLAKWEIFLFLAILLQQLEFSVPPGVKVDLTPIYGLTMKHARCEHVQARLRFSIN

[14] = target: CYP3A4 (Homo sapiens, UniProt P08684); assay: Inhibition of CYP3A4 (unknown origin) assessed as reduction in midazolam hydroxylation to 1'-Hydroxymidazolam at 10 uM; type: ADME; conditions: probe midazolam
Sequence of CYP3A4 (P08684 whole entry): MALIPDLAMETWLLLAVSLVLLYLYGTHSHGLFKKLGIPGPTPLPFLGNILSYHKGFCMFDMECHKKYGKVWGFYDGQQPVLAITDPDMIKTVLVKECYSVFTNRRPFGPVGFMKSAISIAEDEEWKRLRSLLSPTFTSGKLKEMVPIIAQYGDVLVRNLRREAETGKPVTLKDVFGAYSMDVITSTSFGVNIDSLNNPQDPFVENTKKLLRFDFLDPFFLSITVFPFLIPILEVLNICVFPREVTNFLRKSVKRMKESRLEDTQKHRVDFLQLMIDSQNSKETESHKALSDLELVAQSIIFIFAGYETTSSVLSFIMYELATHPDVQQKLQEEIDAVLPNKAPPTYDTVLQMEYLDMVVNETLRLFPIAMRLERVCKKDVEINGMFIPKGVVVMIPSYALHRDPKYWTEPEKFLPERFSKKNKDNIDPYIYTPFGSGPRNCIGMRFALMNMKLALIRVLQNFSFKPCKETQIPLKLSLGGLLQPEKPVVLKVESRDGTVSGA

[15] = target: CYP2C9 (Homo sapiens, UniProt P11712); assay: Inhibition of CYP2C9 (unknown origin) assessed as reduction in tolbutamide hydroxylation to hydrocytolbutamide at 10 uM; type: ADME
Sequence of CYP2C9 (P11712 whole entry, the tested form may be a part): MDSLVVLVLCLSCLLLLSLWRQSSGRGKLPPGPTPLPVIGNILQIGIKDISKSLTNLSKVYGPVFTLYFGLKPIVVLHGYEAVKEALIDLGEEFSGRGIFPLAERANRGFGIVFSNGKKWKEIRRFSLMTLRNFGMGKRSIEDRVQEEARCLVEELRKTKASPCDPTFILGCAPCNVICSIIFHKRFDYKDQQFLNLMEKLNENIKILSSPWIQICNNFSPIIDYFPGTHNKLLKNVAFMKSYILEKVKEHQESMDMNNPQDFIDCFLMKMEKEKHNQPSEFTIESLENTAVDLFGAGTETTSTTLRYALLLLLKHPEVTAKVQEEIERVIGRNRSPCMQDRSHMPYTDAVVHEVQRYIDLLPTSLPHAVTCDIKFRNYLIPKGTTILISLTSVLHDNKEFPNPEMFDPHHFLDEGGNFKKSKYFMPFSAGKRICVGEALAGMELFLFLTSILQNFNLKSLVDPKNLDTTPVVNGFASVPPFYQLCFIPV

[16] = target: T1, LIM domain kinase 1; assay: Inhibition of Limk1 (unknown origin)

| Vd [1] | bioavailability [2] | t1/2 [4] | t1/2 [5] | SMILES | inhibition at 10 µM [10] | inhibition at 10 µM [13] | also measured |
| --- | --- | --- | --- | --- | --- | --- | --- |
| 0.3 L/kg | 0% | – | – | Cc1c[nH]c2ncnc(-c3ccc(NC(=O)Nc4cccc(C(=O)NC(C)C)c4)cc3)c12 | – | – | – |
| – | – | – | – | CC(C)NC(=O)c1cccc(NC(=O)Nc2ccc(-c3ccnc4[nH]ccc34)cc2)c1 | – | – | IC50 [3]: > 10000 nM |
| 0.7 L/kg | 0% | 27 min | 55 min | Cc1c[nH]c2ncnc(-c3ccc(NC(=O)Nc4cccc(C(=O)NC(C)C)c4)c(F)c3)c12 | – | – | IC50 [6]: 4000 nM |
| – | – | – | – | CC(C)NC(=O)c1cccc(NC(=O)Nc2ccc(-c3ncnc4[nH]cnc34)cc2)c1 | – | – | IC50 [3]: 1530 nM; IC50 [7]: 5570 nM |
| – | – | 47 min | > 120 min | Cc1[nH]c2ncnc(-c3ccc(NC(=O)Nc4cccc(C(=O)NC(C)C)c4)cc3)c2c1C | – | – | – |
| 0.5 L/kg | 16% | – | – | Cc1c[nH]c2ncnc(-c3ccc(NC(=O)Nc4ccccc4)cc3)c12 | – | – | – |
| 0.4 L/kg | 36% | 87 min | 30 min | Cc1c[nH]c2ncnc(-c3ccc(NC(=O)N(CCO)c4ccccc4)cc3)c12 | 5% | -16% | inhibition at 10 µM [8]: 77.5%; inhibition at 1 µM [9]: 76%; inhibition at 1 µM [11]: 74%; inhibition at 0.1 µM [12]: 16.5% |
| 0.5 L/kg | 20% | > 120 min | 73 min | Cc1c[nH]c2ncnc(-c3ccc(NC(=O)N(CCO)c4ccc(Cl)cc4)cc3)c12 | 4% | -12% | IC50 [6]: 118 nM |
| – | – | – | – | COc1ccccc1N(CCO)C(=O)Nc1ccc(-c2ncnc3[nH]cc(C)c23)cc1 | – | – | IC50 [7]: > 10000 nM |
| – | – | 38 min | 21 min | COc1cccc(N(CCO)C(=O)Nc2ccc(-c3ncnc4[nH]cc(C)c34)cc2)c1 | 3% | 3% | – |
| 0.3 L/kg | 24% | 56 min | 40 min | COc1ccc(N(CCO)C(=O)Nc2ccc(-c3ncnc4[nH]cc(C)c34)cc2)cc1 | -4% | -8% | inhibition at 10 µM [15]: 8%; inhibition at 10 µM [14]: 2% |
| 6 L/kg | 0% | – | – | COc1ccc(N(CCN)C(=O)Nc2ccc(-c3ncnc4[nH]cc(C)c34)cc2)cc1 | – | – | – |
| 4 L/kg | 0% | – | – | Cc1c[nH]c2ncnc(-c3ccc(NC(=O)N(CCN)c4ccc(Cl)cc4)cc3)c12 | – | – | – |
| 17.1 L/kg | 0% | – | – | Cc1c[nH]c2ncnc(-c3ccc(NC(=O)N(CCN(C)C)c4ccc(Cl)cc4)cc3)c12 | – | – | – |
| – | – | > 120 min | > 120 min | Cc1[nH]c2ncnc(-c3ccc(NC(=O)N(CCN)c4ccc(Cl)cc4)c(F)c3)c2c1C | – | – | inhibition at 10 µM [14]: -11% |
| 1.5 L/kg | – | 19 min | 23 min | Cc1[nH]c2ncnc(-c3ccc(NC(=O)N(CCN(C)C)c4ccc(Cl)cc4)c(F)c3)c2c1C | 20% | – | inhibition at 10 µM [15]: -23%; IC50 [6]: 320 nM; inhibition at 10 µM [14]: -9% |
| 1.2 L/kg | – | – | 13 min | COCCN(C(=O)Nc1ccc(-c2ncnc3[nH]c(C)c(C)c23)cc1F)c1ccc(Cl)cc1 | – | – | inhibition at 10 µM [15]: 50%; IC50 [6]: 250 nM |
| – | – | – | – | COc1ccc(NC(=O)N(CCN2CCCC2)c2ccc(-c3ncnc4[nH]cc(C)c34)cc2)cc1 | – | – | IC50 [3]: 9240 nM |
| – | – | – | – | COc1ccc(NC(=O)N(CCN2CCCCC2)c2ccc(-c3ncnc4[nH]cc(C)c34)cc2)cc1 | – | – | IC50 [3]: > 10000 nM |
| – | – | – | – | COc1c(C=O)c(O)cc2c1C(=O)c1ccccc1C2=O [DAMNACANTHAL] | – | – | IC50 [16]: 800 nM |

| SMILES | Vd [1] | bioavailability [2] | t1/2 [4] | t1/2 [5] | inhibition at 10 µM [10] | inhibition at 10 µM [13] | also measured |
| --- | --- | --- | --- | --- | --- | --- | --- |
| Cc1c[nH]c2ncnc(-c3ccc(NC(=O)N(CCO)c4ccc(F)cc4)cc3)c12 | – | – | 44 min | 52 min | 3% | -4% | – |
| Cc1c[nH]c2ncnc(-c3ccc(NC(=O)N(CCO)c4ccccc4Cl)cc3)c12 | 0.7 L/kg | 21% | – | 38 min | 1% | -4% | inhibition at 10 µM [8]: 81%; inhibition at 1 µM [9]: 83%; inhibition at 1 µM [11]: 76.1%; inhibition at 0.1 µM [12]: 13%; IC50 [6]: 420 nM |
| Cc1c[nH]c2ncnc(-c3ccc(NC(=O)N(CCO)c4cccc(Cl)c4)cc3)c12 | – | – | 22 min | 20 min | 2% | -19% | IC50 [6]: 372 nM |
| Cc1ccc(N(CCO)C(=O)Nc2ccc(-c3ncnc4[nH]cc(C)c34)cc2)cc1 | 0.3 L/kg | 24% | 56 min | 39 min | -4% | -5% | inhibition at 10 µM [14]: 5% |
| Cc1[nH]c2ncnc(-c3ccc(NC(=O)N(CCO)c4ccc(Cl)cc4)c(F)c3)c2c1C | 0.5 L/kg | 29% | 99 min | 44 min | 8% | 40% | – |
